Measured values from ChEMBL document CHEMBL1201862, “PubChem BioAssay data set” (2004).
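The compound was tested at five concentrations on cells cultured in 96-well plates, with a 48-hour exposure period. GI50: concentration for 50% inhibition of growth.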 The source made the active and inactive calls. No stated cut-off is given here; in the data, active = GI50 up to about 1.1 µM and inactive = higher.

What was measured:
Experiment in all cases: inhibition of tumour cell growth, NCI panel, 48 h
[1] = system: SNB-75
[2] = system: HCT-15
[3] = system: SK-MEL-5
[4] = system: Malme-3M
[5] = system: SK-MEL-2
[6] = system: HT-29
[7] = system: DMS-273
[8] = system: HOP-18
[9] = system: MOLT-4
[10] = system: SNB-19
[11] = system: RPMI-8226
[12] = system: K562
[13] = system: SK-OV-3
[14] = system: KM-20L2
[15] = system: DLD-1
[16] = system: SN12C
[17] = system: NCI-H460
[18] = system: SR
[19] = system: TK-10
[20] = system: HOP-62
[21] = system: 786-0
[22] = system: A498
[23] = system: EKVX
[24] = system: KM12
[25] = system: SF-295
[26] = system: RXF 393
[27] = system: SF-539
[28] = system: NCI-H226
[29] = system: HL-60
[30] = system: HCT-116
[31] = system: ACHN
[32] = system: M14
[33] = system: OVCAR-5
[34] = system: M19-MEL
[35] = system: DMS-114
[36] = system: OVCAR-3
[37] = system: IGROV-1
[38] = system: UACC-257
[39] = system: XF498
[40] = system: OVCAR-8
[41] = system: LXFL 529
[42] = system: CCRF-CEM
[43] = system: LOX IMVI
[44] = system: NCI-H522
[45] = system: A549
[46] = system: SK-MEL-28
[47] = system: UO-31
[48] = system: UACC-62
[49] = system: COLO 205
[50] = system: HCC 2998
[51] = system: U-251
[52] = system: SW-620
[53] = system: NCI-H23
[54] = system: SF-268
[55] = system: SNB-78
[56] = system: CAKI-1
[57] = system: HOP-92

Measured: GI50

O=[N+]([O-])c1ccc(C[P+](c2ccccc2)(c2ccccc2)c2ccccc2)cc1
active: [39] < 0.01 µM
81.5 µM: [2]
inactive: [1] 35.9 µM | [3] 57 µM | [4] 37.8 µM | [5] 25.4 µM | [6] 32.9 µM | [7] 37.8 µM | [8] 79.8 µM | [9] > 100 µM | [10] > 100 µM | [11] 26.2 µM | [12] 70.8 µM | [13] > 100 µM | [14] 99.3 µM | [15] 50.4 µM | [16] > 100 µM | [17] 71.3 µM | [18] 38.4 µM | [19] 56 µM | [20] > 100 µM | [21] > 100 µM | [22] > 100 µM | [23] > 100 µM | [24] 52.5 µM | [25] > 100 µM | [26] 11.9 µM | [27] 67.8 µM | [28] > 100 µM | [29] 27.2 µM | [30] 36.5 µM | [31] > 100 µM | [32] 56.9 µM | [33] > 100 µM | [34] 24.2 µM | [35] 23.2 µM | [36] 42.8 µM | [37] 25.4 µM | [38] 16.1 µM | [40] 73.1 µM | [41] 12.5 µM | [42] 80 µM | [43] 42 µM | [44] 32.7 µM | [45] > 100 µM | [46] 35.1 µM | [47] > 100 µM | [48] 32.1 µM | [49] 25.4 µM | [50] 36.1 µM | [51] 31.7 µM | [52] 88.3 µM | [53] 83.8 µM

Nc1cc(=O)n(-c2ccccc2)c(=S)n1-c1ccccc1
inactive: [1] > 100 µM | [3] > 100 µM | [4] > 100 µM | [5] > 100 µM | [6] > 100 µM | [7] > 100 µM | [9] > 100 µM | [10] > 100 µM | [11] > 100 µM | [12] > 100 µM | [13] > 100 µM | [14] > 100 µM | [15] > 100 µM | [16] > 100 µM | [17] > 100 µM | [54] > 100 µM | [19] > 100 µM | [20] > 100 µM | [21] > 100 µM | [22] > 100 µM | [23] > 100 µM | [24] > 100 µM | [25] > 100 µM | [26] > 100 µM | [27] > 100 µM | [28] > 100 µM | [55] > 100 µM | [30] > 100 µM | [31] > 100 µM | [32] > 100 µM | [33] > 100 µM | [34] > 100 µM | [35] > 100 µM | [36] > 100 µM | [37] > 100 µM | [38] > 100 µM | [39] > 100 µM | [40] > 100 µM | [41] > 100 µM | [42] > 100 µM | [43] > 100 µM | [44] > 100 µM | [45] > 100 µM | [47] > 100 µM | [48] > 100 µM | [49] > 100 µM | [50] > 100 µM | [56] > 100 µM | [51] > 100 µM | [52] > 100 µM
> 100 µM: [2]

COc1cc(C2C(Cl)C(=O)N2NC(=O)c2ccc(NC(C)=O)cc2)cc(OC)c1OC (centres undefined)
inactive: [1] > 100 µM | [57] > 100 µM | [3] > 100 µM | [4] > 100 µM | [5] > 100 µM | [6] > 100 µM | [8] > 100 µM | [9] > 100 µM | [10] > 100 µM | [11] > 100 µM | [12] > 100 µM | [13] > 100 µM | [15] > 100 µM | [17] > 100 µM | [54] > 100 µM | [19] > 100 µM | [20] > 100 µM | [24] > 100 µM | [25] > 100 µM | [27] > 100 µM | [28] > 100 µM | [29] > 100 µM | [30] > 100 µM | [31] > 10 µM | [33] > 100 µM | [34] > 100 µM | [36] > 100 µM | [37] > 100 µM | [38] > 100 µM | [41] > 100 µM | [42] > 100 µM | [44] > 100 µM | [45] > 100 µM | [46] > 100 µM | [47] > 100 µM | [48] > 100 µM | [49] > 100 µM | [51] > 100 µM | [52] > 100 µM | [53] > 100 µM
